# Results reported in patent publication US12378224B2 (Dong-A Socio Holdings Co., Ltd., priority 2016, dated 2025).
# Target: human c-MER catalytic domain (Homo sapiens (Human), UniProt Q12866)
# Assay: TR-FRET Kinase Activity Biochemical Assay (LanthaScreen)
# Details: 10 uM ATP, 1 hour, kinase not given
# Summary of the method: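 Recombinant human c-MER catalytic domain phosphorylated fluorescein-labeled poly-GT substrate. The reaction was stopped with 10 mM EDTA, then 2 nM Tb-labeled anti-phosphotyrosine antibody was added for 30 min. Kinase activity was taken from the 495/520 nm TR-FRET emission ratio after 340 nm excitation.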
# human c-MER catalytic domain, sequence (Q12866 587-858): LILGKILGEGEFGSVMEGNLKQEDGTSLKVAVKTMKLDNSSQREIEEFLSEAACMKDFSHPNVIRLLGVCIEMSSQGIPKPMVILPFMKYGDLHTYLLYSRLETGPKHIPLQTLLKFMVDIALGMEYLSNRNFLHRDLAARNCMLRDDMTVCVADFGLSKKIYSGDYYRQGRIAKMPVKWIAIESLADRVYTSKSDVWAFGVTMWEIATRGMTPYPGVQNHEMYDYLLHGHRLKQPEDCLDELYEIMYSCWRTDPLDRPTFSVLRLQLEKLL
row,IC50,SMILES
1,0.1 to 1 µM,"Cc1n[nH]c(C)c1-c1ccc(C(=O)N2CC[C@@H](NC(=O)c3cc(-c4cnn(C)c4)cnc3N)C2)cc1 [Example 518, (R)-2-amino-N-(1-(4-(3,5-dimethyl-1H-pyrazol-4-yl)benzoyl)pyrrolidin-3-yl)-5-(1-methyl-1H-pyrazol-4-yl)nicotinamide]"
2,0.1 to 1 µM,"CN1CCN(Cc2ccc(-c3cc(CN4CC[C@@H](NC(=O)c5cc(-c6cnn(C)c6)cnc5N)C4)ccc3F)cc2)CC1 [Example 633, (R)-2-amino-N-(1-((6-fluoro-4′-((4-methylpiperazin-1-yl)methyl)-[1,1′-biphenyl]-3-yl)methyl)pyrrolidin-3-yl)-5-(1-methyl-1H-pyrazol-4-yl)nicotinamide]"
3,0.1 to 1 µM,"Cn1cc(-c2cnc(N)c(C(=O)N[C@@H]3CCN(C(=O)c4cc(-c5ccccc5)ccc4N)C3)c2)cn1 [Example 486, (R)-2-amino-N-(1-(4-amino-[1,1′-biphenyl]-3-carbonyl)pyrrolidin-3-yl)-5-(1-methyl-1H-pyrazol-4-yl)nicotinamide]"
4,0.1 to 1 µM,"CN1CCN(Cc2cccc(-c3ccc(NC(=O)N4CC[C@@H](NC(=O)c5cc(-c6cnn(C)c6)cnc5N)C4)cc3)c2)CC1 [Example 272, (R)-2-amino-5-(1-methyl-1H-pyrazol-4-yl)-N-(1-((3′-((4-methylpiperazin-1-yl)methyl)-[1,1′-biphenyl]-4-yl)carbamoyl)pyrrolidin-3-yl)nicotinamide]"
5,0.1 to 1 µM,"C=Cc1ccc(C(=O)N2CC[C@@H](NC(=O)c3cc(-c4cnn(C)c4)cnc3N)C2)cc1 [Example 417, (R)-2-amino-5-(1-methyl-1H-pyrazol-4-yl)-N-(1-(4-vinylbenzoyl)pyrrolidin-3-yl)nicotinamide]"
6,0.1 to 1 µM,"Cn1cc(-c2cnc(N)c(C(=O)N[C@@H]3CCN(C(=O)c4ccc(OC5C=CCCC5)cc4)C3)c2)cn1 (stereo partly drawn) [Example 411, 2-amino-N-((3R)-1-(4-(cyclohex-2-en-1-yloxy)benzoyl)pyrrolidin-3-yl)-5-(1-methyl-1H-pyrazol-4-yl)nicotinamide]"
7,0.01 to 0.1 µM,"CN1CCN(Cc2ccc(-c3cnc(N)c(C(=O)N[C@@H]4CCN(C(=O)Nc5cccc(-c6ccccc6)c5)C4)c3)cc2)CC1 [Example 37, (R)—N-(1-([1,1′-biphenyl]-3-ylcarbamoyl)pyrrolidin-3-yl)-2-amino-5-(4-((4-methylpiperazin-1-yl)methyl)phenyl)nicotinamide]"
8,0.1 to 1 µM,"Cn1cc(-c2cnc(N)c(C(=O)N[C@@H]3CCN(Cc4ccccc4-c4cccc(CO)c4)C3)c2)cn1 [Example 247, (R)-2-amino-N-(1-((3′-(hydroxymethyl)-[1,1′-biphenyl]-2-yl)methyl)pyrrolidin-3-yl)-5-(1-methyl-1H-pyrazol-4-yl)nicotinamide]"
9,0.1 to 1 µM,"Cn1cc(-c2cnc(N)c(C(=O)N[C@@H]3CCN(C(=O)c4ccc(-c5ccoc5)cc4)C3)c2)cn1 [Example 487, (R)-2-amino-N-(1-(4-(furan-3-yl)benzoyl)pyrrolidin-3-yl)-5-(1-methyl-1H-pyrazol-4-yl)nicotinamide]"
10,0.1 to 1 µM,"Cn1cc(-c2cnc(N)c(C(=O)N[C@H]3CN(C(=O)c4ccc(-c5ccccc5)cc4)C[C@@H]3O)c2)cn1 [Example 742, N-((3S,4S)-1-([1,1′-biphenyl]-4-carbonyl)-4-hydroxypyrrolidin-3-yl)-2-amino-5-(1-methyl-1H-pyrazol-4-yl)nicotinamide]"
11,0.1 to 1 µM,"Cn1cc(-c2cnc(N)c(C(=O)N[C@@H]3CCN(C(=O)c4ccc(-c5ccccc5)nc4)C3)c2)cn1 [Example 398, (R)-2-amino-5-(1-methyl-1H-pyrazol-4-yl)-N-(1-(6-phenylnicotinoyl)pyrrolidin-3-yl)nicotinamide]"
12,0.1 to 1 µM,"Cn1cc(-c2cnc(N)c(C(=O)N[C@@H]3CCN(C(=O)c4ccc(-c5ccc(CCC(=O)O)cc5)cc4)C3)c2)cn1 [Example 678, (R)-3-(4′-(3-(2-amino-5-(1-methyl-1H-pyrazol-4-yl)nicotinamido)pyrrolidine-1-carbonyl)-[1,1′-biphenyl]-4-yl) propanoic acid]"
13,0.01 to 0.1 µM,"CC(c1ccccc1Cl)N1CC[C@@H](NC(=O)c2cc(-c3cnn(C4CCNCC4)c3)cnc2N)C1 (stereo partly drawn) [Example 148, 2-amino-N-((3R)-1-(1-(2-chlorophenyl)ethyl)pyrrolidin-3-yl)-5-(1-(piperidin-4-yl)-1H-pyrazol-4-yl)nicotinamide]"
14,0.1 to 1 µM,"Cn1cc(-c2cnc3[nH]nc(N[C@@H]4CCN(C(=O)c5ccc(-c6ccc(Oc7ccc(N)cc7)cc6)cc5)C4)c3c2)cn1 [Example 620, (R)-(4′-(4-aminophenoxy)-[1,1′-biphenyl]-4-yl)(3-((5-(1-methyl-1H-pyrazol-4-yl)-1H-pyrazolo[3,4-b]pyridin-3-yl)amino)pyrrolidin-1-yl)methanone]"
15,0.1 to 1 µM,"CC(=O)n1ccc2cc(C(=O)N3CC[C@@H](NC(=O)c4cc(-c5cnn(C)c5)cnc4N)C3)ccc21 [Example 513, (R)—N-(1-(1-acetyl-1H-indole-5-carbonyl)pyrrolidin-3-yl)-2-amino-5-(1-methyl-1H-pyrazol-4-yl)nicotinamide]"
16,0.1 to 1 µM,"Cn1cc(-c2cnc3[nH]nc(N[C@@H]4CCN(C(=O)c5ccc(-c6ccc(CN7CCOCC7)cc6)cc5)C4)c3c2)cn1 [Example 793, (R)-(3-((5-(1-methyl-1H-pyrazol-4-yl)-1H-pyrazolo[3,4-b]pyridin-3-yl)amino)pyrrolidin-1-yl)(4′-(morpholinomethyl)-[1,1′-biphenyl]-4-yl)methanone]"

row,SMILES,IC50
1,"N#Cc1ccc(-c2cnc(N)c(C(=O)N[C@@H]3CCN(Cc4ccc(Cl)cc4)C3)c2)cc1 [Example 238, (R)-2-amino-N-(1-(4-chlorobenzyl)pyrrolidin-3-yl)-5-(4-cyanophenyl)nicotinamide]",> 1 µM
2,"COC(=O)[C@H]1C[C@@H](NC(=O)c2cc(-c3cnn(C)c3)cnc2N)CN1C(=O)c1ccc(-c2ccc(F)cc2Cl)cc1 [Example 689, methyl (2R,4R)-4-(2-amino-5-(1-methyl-1H-pyrazol-4-yl)nicotinamido)-1-(2′-chloro-4′-fluoro-[1,1′-biphenyl]-4-carbonyl)pyrrolidine-2-carboxylate]",> 1 µM
3,"Cn1cc(-c2cnc(N)c(C(=O)N[C@@H]3CCN(C(=O)O[C@H]4CCC[C@@H]4OCc4ccccc4)C3)c2)cn1 [Example 120, (1S,2S)-2-(benzyloxy)cyclopentyl (R)-3-(2-amino-5-(1-methyl-1H-pyrazol-4-yl)nicotinamido)pyrrolidine-1-carboxylate]",> 1 µM
4,"CC1CC(C)CC(OC(=O)N2CC[C@@H](NC(=O)c3cc(-c4cnn(C)c4)cnc3N)C2)C1 (stereo partly drawn) [Example 79, 3,5-dimethylcyclohexyl (3R)-3-(2-amino-5-(1-methyl-1H-pyrazol-4-yl)nicotinamido)pyrrolidine-1-carboxylate]",> 1 µM
5,"Cn1cc(-c2cnc(N)c(C(=O)N[C@@H]3CCN(C(=O)Cc4cccc(Br)c4)C3)c2)cn1 [Example 421, (R)-2-amino-N-(1-(2-(3-bromophenyl)acetyl)pyrrolidin-3-yl)-5-(1-methyl-1H-pyrazol-4-yl)nicotinamide]",> 1 µM
6,"Cn1cc(-c2cnc(N)c(C(=O)N[C@@H]3CCN(C(=O)c4ccc(CCBr)cc4)C3)c2)cn1 [Example 413, (R)-2-amino-N-(1-(4-(2-bromoethyl)benzoyl)pyrrolidin-3-yl)-5-(1-methyl-1H-pyrazol-4-yl)nicotinamide]",> 1 µM
7,"Cn1cc(-c2cnc(N)c(C(=O)N[C@@H]3CCN(c4ncc([N+](=O)[O-])s4)C3)c2)cn1 [Example 138, (R)-2-amino-5-(1-methyl-1H-pyrazol-4-yl)-N-(1-(5-nitrothiazol-2-yl)pyrrolidin-3-yl)nicotinamide]",> 1 µM
8,"Cn1cc(-c2cnc(N)c(C(=O)N[C@@H]3CCN(C(=O)c4cccc(-c5cccc(N)c5)c4)C3)c2)cn1 [Example 457, (R)-2-amino-N-(1-(3′-amino-[1,1′-biphenyl]-3-carbonyl)pyrrolidin-3-yl)-5-(1-methyl-1H-pyrazol-4-yl)nicotinamide]",> 1 µM
9,"Cn1cc(-c2cnc(N)c(C(=O)N[C@@H]3CCN(C(=O)Oc4cccc(-c5cnn(CCN6CCCC6)c5)c4)C3)c2)cn1 [Example 286, 3-(1-(2-(pyrrolidin-1-yl)ethyl)-1H-pyrazol-4-yl)phenyl (R)-3-(2-amino-5-(1-methyl-1H-pyrazol-4-yl)nicotinamido)pyrrolidine-1-carboxylate]",0.1 to 1 µM
10,"Cn1cc(-c2cnc(N)c(C(=O)N[C@@H]3CCN(C(=O)OC4CCCN(c5ccc(C=O)cc5)C4)C3)c2)cn1 (stereo partly drawn) [Example 123, 1-(4-formylphenyl)piperidin-3-yl (3R)-3-(2-amino-5-(1-methyl-1H-pyrazol-4-yl)nicotinamido)pyrrolidine-1-carboxylate]",> 1 µM
11,"Cn1cc(-c2cnc(N)c(C(=O)N[C@@H]3CCN(C(=O)Oc4ccc5ccc(OC6CCNCC6)cc5c4)C3)c2)cn1 [Example 294, 7-(piperidin-4-yloxy)naphthalen-2-yl (R)-3-(2-amino-5-(1-methyl-1H-pyrazol-4-yl)nicotinamido)pyrrolidine-1-carboxylate]",0.01 to 0.1 µM
12,"Cc1onc(-c2ccccc2)c1C(=O)N1CC[C@@H](NC(=O)c2cc(-c3cnn(C)c3)cnc2N)C1 [Example 500, (R)-2-amino-5-(1-methyl-1H-pyrazol-4-yl)-N-(1-(5-methyl-3-phenylisoxazole-4-carbonyl)pyrrolidin-3-yl)nicotinamide]",> 1 µM
13,"Cn1cc(-c2cnc(N)c(C(=O)N[C@H]3CCCN(C(=O)c4ccc(-c5ccccc5)cc4)C3)c2)cn1 [Example 348, (S)—N-(1-([1,1′-biphenyl]-4-carbonyl)piperidin-3-yl)-2-amino-5-(1-methyl-1H-pyrazol-4-yl)nicotinamide]",> 1 µM
14,"Cn1cc(-c2cnc(N)c(C(=O)N[C@@H]3CCN(C(=O)c4cccc(C5=CCCCC5)c4)C3)c2)cn1 [Example 475, (R)-2-amino-5-(1-methyl-1H-pyrazol-4-yl)-N-(1-(2′,3′,4′,5′-tetrahydro-[1,1′-biphenyl]-3-carbonyl)pyrrolidin-3-yl)nicotinamide]",> 1 µM
